Several values for one entry are separate records, joined by “and”; a condition that tells them apart may be missing. Identical values can stand only once. Entries after “also recorded” stand apart in the source; their conditions may differ. Like-named read-outs stand apart in the source and are kept apart here.
Legend:
[1] = target: T1, SERCA2a (Sus scrofa, UniProt P11607); set-up: method as in PMID 32397211; conditions: read-out: EC50 of SERCA inhibition; cited from earlier work
T1 construct: Cardiac SR vesicles were isolated from fresh porcine left ventricular tissue using differential centrifugation; from tissue; host or cells: porcine left ventricular tissue (cardiac SR vesicles)
T1 sequence (P11607 1-997 isoform P11607-2): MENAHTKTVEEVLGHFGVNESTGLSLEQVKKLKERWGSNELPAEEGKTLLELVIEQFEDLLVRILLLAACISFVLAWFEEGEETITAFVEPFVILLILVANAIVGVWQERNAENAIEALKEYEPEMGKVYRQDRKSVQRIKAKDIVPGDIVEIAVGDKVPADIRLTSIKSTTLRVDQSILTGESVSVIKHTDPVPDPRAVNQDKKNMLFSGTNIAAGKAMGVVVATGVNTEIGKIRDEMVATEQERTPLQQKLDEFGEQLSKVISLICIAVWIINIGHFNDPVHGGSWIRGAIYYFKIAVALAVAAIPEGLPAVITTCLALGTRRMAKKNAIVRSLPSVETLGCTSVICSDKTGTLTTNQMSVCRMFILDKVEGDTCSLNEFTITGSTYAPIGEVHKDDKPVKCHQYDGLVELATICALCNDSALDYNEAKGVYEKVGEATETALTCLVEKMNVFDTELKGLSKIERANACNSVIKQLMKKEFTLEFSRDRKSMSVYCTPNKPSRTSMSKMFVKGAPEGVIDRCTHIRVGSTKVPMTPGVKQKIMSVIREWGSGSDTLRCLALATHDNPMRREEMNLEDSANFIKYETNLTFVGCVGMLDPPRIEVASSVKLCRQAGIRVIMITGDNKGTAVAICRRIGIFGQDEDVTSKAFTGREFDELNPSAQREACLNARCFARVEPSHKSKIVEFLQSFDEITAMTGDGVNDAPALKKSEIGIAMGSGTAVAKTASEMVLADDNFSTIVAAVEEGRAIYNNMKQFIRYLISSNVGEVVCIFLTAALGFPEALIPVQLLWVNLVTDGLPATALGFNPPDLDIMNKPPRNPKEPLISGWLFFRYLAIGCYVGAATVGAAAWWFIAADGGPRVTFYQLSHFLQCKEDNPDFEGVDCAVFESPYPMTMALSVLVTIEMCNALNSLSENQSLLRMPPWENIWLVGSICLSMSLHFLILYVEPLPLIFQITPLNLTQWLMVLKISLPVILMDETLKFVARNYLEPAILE

[2] = target: T1, SERCA2a; assay: NADH-linked Ca2+-ATPase activity assay in pig cardiac SR (pCSR) vesicles; type: biochemical; conditions: for Ca2+-ATPase C10: concentration yielding 10% effect
Description: (§1) Cardiac SR vesicles were isolated from fresh porcine left ventricular tissue using differential centrifugation of the homogenized tissue as previously described. The SR vesicles were flash-frozen and stored at − 80 °C until needed. The SERCA concentration in the ER preparations purified from HEK cell homogenate is at least 10 times less than in purified porcine cardiac SR[20], but there was sufficient expression of the fluorescent SERCA2a biosensor in HEK cells to detect FRET with high precision by FLT[22],[23],[26].
Functional assays were performed using porcine cardiac SR (pCSR) vesicles. An enzyme-coupled, NADH-linked ATPase assay was used to measure SERCA ATPase activity in 384-well microplates. Each well contained 50 mM MOPS (pH 7.0), 100 mM KCl, 1 mM EGTA, 0.2 mM NADH, 1 mM phosphoenol pyruvate, 10 IU/mL of pyruvate kinase, 10 IU/mL of lactate dehydrogenase, 7 µM of the calcium ionophore A23187 (Sigma), and CaCl2 was added to set free [Ca^2+] to three different concentrations. Ca^2+-ATPase activity was measured at three [Ca^2+]: [Ca^2+]MAX (saturating, pCa 5.4), [Ca^2+]MID (subsaturating, midpoint, pCa 6.2), and [Ca^2+]BAS (basal non-activating, pCa 8.0). 10 μg/mL of SR vesicle, calcium, compound (0.048 to 50 μM), and assay mix were incubated for 20 min at room temperature before measurement of functional assays with each of the 18 hit compounds, because a shorter incubation time than the FRET live-cell assays achieved optimal responses. The assay was started upon the addition of MgATP, at a final concentration of 5 mM (total volume to 80 μL), and absorbance was read at 340 nm in a SpectraMax Plus^384 microplate spectrophotometer (Molecular Devices, Sunnyvale, CA).
(§2) SERCA2a activity, F (rate of ATP hydrolysis or Ca^2+ uptake), was measured at varying pCa and varying compound concentration. F measured at [Ca^2+]MAX (saturating, pCa 5.4) or [Ca^2+]MID (subsaturating, midpoint, pCa 6.2) was corrected by subtracting the basal rate at pCa 8.0) and the % effect due to compound was reported. Concentration response curves (CRC) were fitted using the Hill function to determine VMAX (the activity at saturating [compound]), and EC50, the compound concentration at 50% effect.

[3] = target: T2, human two-color SERCA2a (2CS) biosensor (Homo sapiens, UniProt P16615, INS508[…]); assay: FRET concentration response curves (FLT-FRET) with the 2CS biosensor in live HEK cells; type: cell-based
T2 construct: expressed in transfected cells
T2 sequence (P16615 other isoform, or with tags, fused parts or gaps with the stated changes): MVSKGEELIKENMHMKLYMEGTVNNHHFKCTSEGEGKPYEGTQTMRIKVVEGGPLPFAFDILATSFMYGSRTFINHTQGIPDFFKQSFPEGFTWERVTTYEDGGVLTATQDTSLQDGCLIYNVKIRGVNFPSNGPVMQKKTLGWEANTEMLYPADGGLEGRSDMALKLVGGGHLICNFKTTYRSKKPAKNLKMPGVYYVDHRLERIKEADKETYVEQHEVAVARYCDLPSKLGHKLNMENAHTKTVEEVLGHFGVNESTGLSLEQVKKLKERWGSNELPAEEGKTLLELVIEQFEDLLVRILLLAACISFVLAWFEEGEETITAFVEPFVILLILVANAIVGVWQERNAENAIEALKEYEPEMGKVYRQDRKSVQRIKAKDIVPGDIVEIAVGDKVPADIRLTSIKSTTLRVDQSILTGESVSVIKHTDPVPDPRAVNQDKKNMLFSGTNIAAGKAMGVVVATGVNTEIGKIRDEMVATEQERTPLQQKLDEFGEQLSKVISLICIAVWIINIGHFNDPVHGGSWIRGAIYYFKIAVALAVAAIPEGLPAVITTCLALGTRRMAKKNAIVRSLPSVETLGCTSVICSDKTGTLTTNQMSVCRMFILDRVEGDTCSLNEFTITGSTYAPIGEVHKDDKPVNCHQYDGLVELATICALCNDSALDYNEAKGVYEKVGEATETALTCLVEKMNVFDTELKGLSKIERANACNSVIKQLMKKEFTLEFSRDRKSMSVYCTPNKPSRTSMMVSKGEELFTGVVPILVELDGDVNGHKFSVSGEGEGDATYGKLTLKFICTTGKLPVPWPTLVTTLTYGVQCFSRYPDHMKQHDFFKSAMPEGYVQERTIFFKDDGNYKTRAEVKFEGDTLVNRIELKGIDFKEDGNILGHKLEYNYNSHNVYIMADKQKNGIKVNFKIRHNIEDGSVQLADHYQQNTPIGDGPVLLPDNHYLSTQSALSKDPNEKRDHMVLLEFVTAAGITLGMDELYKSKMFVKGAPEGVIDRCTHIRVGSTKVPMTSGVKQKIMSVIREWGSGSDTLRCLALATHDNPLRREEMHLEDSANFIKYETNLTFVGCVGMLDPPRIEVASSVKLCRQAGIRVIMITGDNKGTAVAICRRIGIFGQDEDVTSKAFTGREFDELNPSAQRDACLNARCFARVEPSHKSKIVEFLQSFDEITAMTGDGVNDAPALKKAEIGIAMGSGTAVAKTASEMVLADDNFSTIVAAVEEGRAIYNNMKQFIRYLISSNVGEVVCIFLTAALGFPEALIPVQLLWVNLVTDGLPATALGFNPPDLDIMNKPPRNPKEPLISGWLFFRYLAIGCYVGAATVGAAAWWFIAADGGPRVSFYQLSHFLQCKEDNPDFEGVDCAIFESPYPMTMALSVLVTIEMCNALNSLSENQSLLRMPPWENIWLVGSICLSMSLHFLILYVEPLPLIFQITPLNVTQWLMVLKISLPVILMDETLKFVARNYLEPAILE
From the text: A two-color intramolecular human SERCA2a (2CS) biosensor, based on human cardiac SERCA2a fused to green fluorescent protein (eGFP) and red fluorescent protein (tagRFP) was developed to detect structural changes that are related to the functional changes of SERCA[20],[22],[25]. Briefly, tagRFP was genetically fused to the N-terminus of SERCA (A-domain) and eGFP was inserted as an intrasequence tag before residue 509 in the nucleotide-binding domain (N-domain)[60],[61]. Donor-only and acceptor-only (1CS) biosensors were created in a similar manner as the 2CS biosensor but with the construct containing either only eGFP or only tag-RFP, respectively. […] A null-biosensor construct consisting of eGFP and tagRFP connected by a 32-residue unstructured flexible linker peptide (G32R) was created as described previously[23],[25]. All constructs were cloned into expression vectors containing the genes for antibiotic resistance to G418, puromycin, or blasticidin.
Stable cell lines were generated using either human embryonic kidney (HEK) HEK293 (ATCC, Manassas, VA) or HEK293-6E (National Research Council, Canada) cells. Briefly, cells were transiently transfected with 2CS, 1CS, or G32R null-biosensor plasmids using Lipofecatime 3000 or 293fectin (Thermo Fisher Scientific). Flow cytometry was used to select and enrich for the population of cells expressing respective biosensors. Stable HEK293 cell lines were maintained in phenol red-free DMEM media (Gibco, Waltham, MA) supplemented with 2 mM GlutaMAX (Gibco, Waltham, MA), 10% fetal bovine serum (FBS) (Atlanta Biologicals, Lawrenceville, GA), 1 IU/mL penicillin/streptomycin (Gibco, Waltham, MA), and 250 μg/mL G418 (Fisher Scientific). Stable HEK293-6E cell lines were maintained in F17 media (Sigma Aldrich) supplemented with Kolliphor p188 (Sigma Aldrich, St. Louis, MO), […] GlutaMAX, and either 1 μg/mL puromycin (Invitrogen, Carlsbad, CA) or 2 μg/mL blasticidin (Goldbio) as a selection antibiotic. All cell lines were grown at 37 °C with 5% CO2.
FRET CRC assay plates (0.78–100 μM compound range) with at least ten different compound concentrations were made by adding the appropriate volume of compound or DMSO into black 384 well plates (Greiner Bio-One) using a Mosquito HV (SPTLabTech, United Kingdom). Subsequent Ca^2+-ATPase activity and Ca^2+-transport CRC assay plates (0–50 μM compound range) with repurchased compounds were made in a similar manner using with the Echo 550 (Beckman Coulter) using either 384 well transparent plates (Greiner Bio-One) or black-walled plates with transparent bottoms (Greiner Bio-One), respectively.
On each day of screening, cells were harvested, washed three times with PBS, and centrifuged at 300 g for 5 min. Cells were filtered using a 70 µm cell strainer and diluted to 1–2 × 10^6 cells/mL. Cell concentration and viability were assessed using the Cell countess (Invitrogen) and trypan blue assay. During assays, cells were constantly and gently stirred using a magnetic stir bar at room temperature, keeping the cells in suspension and evenly distributed to avoid clumping. HEK 293-cells expressing 2CS were dispensed at 5 μL or […] per well into assay plates (dispensed into 40 assay plates, each containing 1536 wells) pre-plated with compounds (from a DIVERset 50,000 compound library) using a Multdrop Combi liquid dispenser (Thermo Fisher Scientific, Pittsburg, PA) and sealed until needed. Because the kinetics of membrane permeability, diffusion, and/or binding of the compound to live cells may be compound-dependent, we tested two incubation times, 20 min and 120 min, for the FRET CRC. […] Plates containing eight-point concentration curves of three tool compounds (known SERCA effectors thapsigargin, BHQ, and CPA)[22] were used as positive controls for biosensor function and performance prior to running the full-scale FRET-HTS assay. […]

[4] = target: T1, SERCA2a; assay: Oxalate-supported Fluo-4 Ca2+-uptake (Ca2+-transport) assay in pig cardiac SR (pCSR) vesicles; type: biochemical; conditions: for Ca2+-Uptake C10: concentration yielding 10% effect; for CR (coupling ratio) VU/VA: maximum Ca2+-uptake rate / Ca2+-ATPase rate at [Ca2+]MAX, DMSO control = 0.66
Description: as §1
Ca^2+-transport assays were performed with similar porcine SR samples as in the Ca^2+-ATPase assays described above. The compound effect on the Ca^2+-transport activity of SERCA2a was determined using an oxalate-supported assay in which the change in fluorescence in a Ca^2+-sensitive dye, Fluor-4, was determined as previously described. A buffered solution containing 50 mM MOPS (pH 7.0), 100 mM KCl, 30 mg/mL sucrose, 1 mM EGTA, 10 mM potassium oxalate, 2 µM Fluo-4, 30 µg/mL porcine cardiac SR vesicles, CaCl2 calculated to reach the free [Ca^2+] (pCa 8.0, 6.2, and 5.4), and compound (0.048 to 50 μM) was dispensed into 384-well black walled, transparent bottomed plates (Greiner Bio-One) containing the tested small molecule and incubated at 22℃ for 20 min while covered and protected from light. To start the reaction, MgATP was added to a final concentration of 5 mM, and the decrease in 485-nm excited fluorescence of Fluo-4 was monitored at 520 nm for 15 min using a FLIPR Tetra (Molecular Devices, San Jose, CA).
as §2

[5] = [Ca2+]MID (pCa6.2), maximal compound effect vs DMSO control, pCSR
[6] = activators, categories activate / uncouple / inhibit

SMILES	EC50 [1] [µM]	EC50 ([2]; [Ca2+]MAX (pCa5.4)) [µM]	Ca2+-ATPase C10 ([2]; [Ca2+]MAX (pCa5.4)) [µM]	EC50 ([2]; [Ca2+]MID (pCa6.2)) [µM]	Ca2+-ATPase C10 ([2]; [Ca2+]MID (pCa6.2)) [µM]	EC50 [3] [µM]	EC50 ([4]; [Ca2+]MAX (pCa5.4)) [µM]	Ca2+-Uptake C10 ([4]; [Ca2+]MAX (pCa5.4)) [µM]	EC50 ([4]; [Ca2+]MID (pCa6.2)) [µM]	Ca2+-Uptake C10 ([4]; [Ca2+]MID (pCa6.2)) [µM]	CR (coupling ratio) VU/VA [4]	Increase in Ca2+-ATPase activity [2]	Ca2+-ATPase ΔFMAX ([2]; [Ca2+]MAX (pCa5.4), maximal compound effect vs DMSO control, pCSR)	Ca2+-ATPase ΔFMID [2, 5]	Effect on Ca2+-ATPase activity (category, Fig. 4A) [2, 6]	Decrease (inhibition) of Ca2+-uptake at [Ca2+]MAX ([4]; [Ca2+]MAX, size of decrease) [%]	Ca2+-Uptake ΔFMID [4, 5]	Effect on Ca2+-uptake (category, Fig. 4A) [4, 6]	Inhibition of Ca2+-uptake (class) ([4]; strong / moderate / mild)
C/C=C(/C)C(=O)O[C@H]1C(C)=C2[C@H]([C@@H]1OC(=O)CCCCCCC)[C@@](C)(OC(C)=O)C[C@H](OC(=O)CCC)[C@@]1(O)[C@H]2OC(=O)[C@@]1(C)O [Tg, thapsigargin]	~0.0075																		
COC(=O)CSc1ncc(-c2ccc(F)cc2)c(C2CCCN(C(=O)c3cccc(F)c3)C2)n1 (stereo not shown) [Compound 11, methyl {[4-[1-(3-fluorobenzoyl)-3-piperidinyl]-5-(4-fluorophenyl)-2-pyrimidinyl]thio}acetate]		3.2 ± 0.4	0.8	3.6 ± 0.5	1.2	14 ± 6.4	1.8 ± 0.04	0.2	2.8 ± 0.1	0.5	0.13								
COc1ccc(Cc2noc(CN3CCN(c4nc5ccccc5s4)CC3)n2)cc1OC [Compound 5, 2-(4-{[3-(3,4-dimethoxybenzyl)-1,2,4-oxadiazol-5-yl]methyl}-1-piperazinyl)-1,3-benzothiazole]			22.7		19.6	1.5 ± 0.1				22.5	0.47	10–25%	25% and 25 ± 3.3%	35% and 35 ± 8.2%	activate	2	20% and 20 ± 3.3%	inhibit	
CCc1ccc(S(=O)(=O)N2CCCC(C(=O)c3sccc3C)C2)cc1 (stereo not shown) [Compound 14, {1-[(4-ethylphenyl)sulfonyl]-3-piperidinyl}(3-methyl-2-thienyl)methanone]		13 ± 11	6.3	8.9 ± 2.2	3.2	9.2 ± 1.1	3.4 ± 0.2	1.3	3.9 ± 0.2	1.7	0.16								M → S; also recorded: moderate-to-strong
